Results as given in patent US10865207B2, “Compounds for imaging Tau protein aggregates” (AC IMMUNE S.A., priority 2016, dated 2020).
Entries after “also recorded” stand apart in the source; their conditions may differ. Marks after values point to notes of the source that are not given here. Each block holds one compound with its values, some of them ahead of it.

Legend:
[1] = Autoradiography on healthy control (HC) human brain slices; format: binding
Experimental: (§1) 18 micron thick frozen human brain slices and 6 micron thick human FFPE brain slices were examined via autoradiography. Brain sections were equilibrated for at least 1 h in 1×PBS solution prior to use in the experiment. Each brain section was covered with a solution of the ^18F-labeled tracer (200 Bq/μl, 500 μl) in 1×PBS. For blocking experiments with the corresponding ^19F-compound, an excess of the blocking compound (10 μM) was mixed with the ^18F-compound. The brain sections were allowed to incubate with the tracer solution at room temperature for 1 h, drained afterwards and placed in a slide holder. The slides were then washed sequentially with 1×PBS for 1 min; 70% EtOH in 1×PBS for 2 min; 30% EtOH in 1×PBS for 2 min; and 1×PBS for 1 min. The slides were allowed to air-dry before being placed on Fuji imaging plates […] for overnight exposure. The imaging plates were scanned and the signal was measured using Fuji software to produce an autoradiographic image of the brain section.

Tau pathology = assay: Human imaging study (PET in AD subjects and non-demented controls); format: in vivo
Experimental: In a clinical trial, subjects with AD as well as non-demented controls (NDC) underwent dynamic PET imaging for over 3 h following 370 MBq bolus injection of ^18F-4.

[2] = target: T1, Tau in PSP brain sections (Homo sapiens, UniProt P10636); assay: Autoradiography on human PSP brain slices; format: binding
T1 construct: frozen human brain slices; from tissue; host or cells: human PSP brain slices
Experimental: as §1

[3] = tested on: Tau (AD brain vs mouse brain homogenate); assay: Tracer signal ratio, AD brain vs mouse brain homogenate; format: binding, human; set-up: High signal to noise (grade), AD brain / mouse brain homogenate: key: −: poor; ∘: moderate; +: good; ++: very good; +++: excellent
[4] = target: T2, Tau in PiD brain sections (Homo sapiens, UniProt P10636); assay: Autoradiography on human PiD brain slices; format: binding
T2 construct: frozen human brain slices; from tissue; host or cells: human PiD brain slices
Experimental: as §1

MAO A = target: T3, MAO A (Homo sapiens, UniProt P21397); assay: MAO A FEH competition assay in human HC brain homogenate; format: binding; set-up: Low affinity to MAO A (grade), HC homogenate: key: −: poor; ∘: moderate; +: good; ++: very good; +++: excellent; settings: for IC50: human control brain homogenate, FEH competition, fluorine-19 derivatives
T3 construct: 20 μg of human brain homogenate (without AD pathology); from tissue; host or cells: human brain homogenate without AD pathology
T3 sequence (P21397 1-527): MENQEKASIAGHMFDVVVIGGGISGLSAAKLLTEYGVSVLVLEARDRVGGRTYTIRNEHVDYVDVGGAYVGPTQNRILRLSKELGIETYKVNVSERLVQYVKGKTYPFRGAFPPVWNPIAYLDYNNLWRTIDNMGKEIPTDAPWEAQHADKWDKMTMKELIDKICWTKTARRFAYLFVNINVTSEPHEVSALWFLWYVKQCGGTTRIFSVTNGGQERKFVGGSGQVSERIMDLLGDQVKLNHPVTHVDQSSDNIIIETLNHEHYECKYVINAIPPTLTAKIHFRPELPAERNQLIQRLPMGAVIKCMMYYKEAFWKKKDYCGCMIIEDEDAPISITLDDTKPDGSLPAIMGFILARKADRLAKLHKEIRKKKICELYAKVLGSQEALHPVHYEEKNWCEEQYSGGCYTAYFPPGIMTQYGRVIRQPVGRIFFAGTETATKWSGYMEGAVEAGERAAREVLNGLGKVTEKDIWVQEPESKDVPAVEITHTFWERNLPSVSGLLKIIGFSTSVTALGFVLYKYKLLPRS
Experimental: 20 μg of human brain homogenate (without AD pathology) was incubated with a dilution series of each test compound (1000 to 0.06 nM) in the presence of 800 Bq of ^18F-labeled MAO-A binder ([^18F]fluoroethyl harmine, FEH). The samples were shaken at 110 rpm for 45 min at 37° C. Samples were then filtered through GF/B 96 well filter plates and washed twice with 300 μL assay buffer (PBS containing 0.1% BSA and 2% DMSO). Thereafter, filter plates were sealed and a Fuji Film Imaging Plate (BAS-SR2025) was placed on top. The imaging plate was analyzed after overnight exposition using a Fuji Film BAS-5000. Non-specific signal was determined with samples containing ^18F-labeled FEH in the presence of assay buffer without brain substrate and competitor. […] The unblocked ^18F-labeled FEH signal was defined as total binding. IC50 values were calculated by Prism V6 (GraphPad) setting total binding to 100%.

Tau in AD brain sections = assay: Autoradiography on human AD brain slices; format: binding
Experimental: as §1

[5] = tested on: Tau (AD brain homogenate vs healthy control brain homogenate); assay: Tracer signal-to-noise ratio, AD brain homogenate vs healthy control brain homogenate; format: binding, human; set-up: High signal to noise (grade), AD brain / HC brain homogenate / High signal to noise (further homogenates) (grade): key to the marks not given beside the values
[6] = further AD brain homogenate vs HC brain homogenate

T1 sequence (P10636 1-441 isoform P10636-8): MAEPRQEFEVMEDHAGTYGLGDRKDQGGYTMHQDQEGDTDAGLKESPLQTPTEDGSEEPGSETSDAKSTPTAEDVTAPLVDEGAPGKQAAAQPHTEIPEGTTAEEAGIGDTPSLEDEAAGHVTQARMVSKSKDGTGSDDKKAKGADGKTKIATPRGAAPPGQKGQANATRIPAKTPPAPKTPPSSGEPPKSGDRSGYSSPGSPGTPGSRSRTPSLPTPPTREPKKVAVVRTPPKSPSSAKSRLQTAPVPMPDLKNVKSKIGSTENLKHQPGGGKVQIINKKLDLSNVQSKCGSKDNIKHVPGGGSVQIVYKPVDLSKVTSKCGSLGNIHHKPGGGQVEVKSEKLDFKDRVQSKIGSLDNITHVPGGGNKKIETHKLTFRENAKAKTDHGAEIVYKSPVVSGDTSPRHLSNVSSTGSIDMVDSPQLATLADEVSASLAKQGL
T2 sequence (P10636 1-410 isoform P10636-5): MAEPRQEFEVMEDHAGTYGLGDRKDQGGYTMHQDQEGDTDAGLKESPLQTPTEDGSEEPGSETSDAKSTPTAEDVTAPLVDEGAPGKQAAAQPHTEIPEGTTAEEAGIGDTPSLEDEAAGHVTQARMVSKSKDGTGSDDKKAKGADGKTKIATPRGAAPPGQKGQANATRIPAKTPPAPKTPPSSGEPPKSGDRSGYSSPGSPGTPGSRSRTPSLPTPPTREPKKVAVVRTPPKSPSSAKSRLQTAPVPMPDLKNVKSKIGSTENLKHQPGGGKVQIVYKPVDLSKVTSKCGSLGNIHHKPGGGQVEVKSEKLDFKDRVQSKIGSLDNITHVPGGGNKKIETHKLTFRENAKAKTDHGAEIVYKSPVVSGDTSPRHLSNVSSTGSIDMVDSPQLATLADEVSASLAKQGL

- brain uptake in human subjects (in words) (Tau pathology; 370 MBq bolus, dynamic PET): good brain uptake
- washout from non-target brain regions in human subjects (in words) (Tau pathology; 370 MBq bolus, dynamic PET): fast washout
- Autoradiography signal in PSP brain sections (in words) [2]: strong signal
- Binding to PSP brain slices by autoradiography (grade) ([2]; in house data): +++^a)
- Autoradiography signal in PiD brain sections (in words) [4]: strong signal
- Binding to PiD brain slices by autoradiography (grade) ([4]; in house data): +++^a)
- fold higher MAO A IC50 than compound 18F-1 (MAO A; HC brain homogenate): 106 fold
- fold higher MAO A IC50 than compound 18F-2 (MAO A; HC brain homogenate): 5 fold
- Low affinity to MAO A (grade), HC homogenate (MAO A; Table 1): ++
- IC50 (MAO A): 530 nM
- Binding to AD brain (Braak stage 1/3) by autoradiography (grade) (Tau in AD brain sections; in house data): +++^a)
- Binding to AD brain (Braak stage 5/6) by autoradiography (grade) (Tau in AD brain sections; in house data): +++^a)
Compound: [18F]c1ncccc1-c1ccc2c(n1)[nH]c1ccncc12 [Compound ^18F-4]
- Autoradiography signal in healthy control (HC) sections (in words) [1]: no specific signal was visible
- uptake in AD subjects (in words) (Tau pathology; AD subjects): focal asymmetric uptake was evident in temporal, parietal and frontal lobes
- uptake in choroid plexus, basal ganglia, striatum, amygdala, meninges in non-demented controls (in words) (Tau pathology; NDC subjects): no increased uptake
- Ratio of tracer signal AD brain / signal in mouse brain homogenate ([3]; 18F tracer): 15.1^a)
- fold higher signal to noise ratio than 18F-1 ([3]; AD brain homogenate vs whole mouse brain homogenate): 6.9 fold
- High signal to noise (grade), AD brain / mouse brain homogenate ([3]; Table 1): +++
- Autoradiography signal in AD brain sections (in words) (Tau in AD brain sections; blockable with excess cold compound): strong punctated staining; also recorded: Specific binding
- fold higher signal to noise ratio than 18F-1 ([5]; AD vs HC brain homogenate): 7.7 fold
- High signal to noise (further homogenates) (grade) ([5]; Table 1): +++
- High signal to noise (grade), AD brain / HC brain homogenate ([5]; Table 1): +++
- fold higher signal to noise ratio than 18F-1 [5, 6]: 7.2-11 fold
- fold higher signal to noise ratio than 18F-2 [5, 6]: 3.7-4.0 fold

- IC50 (MAO A): 530 nM
Compound: Fc1ncccc1-c1ccc2c(n1)[nH]c1ccncc12 [Compound F-4]
